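Cells were grown in 96-well plates and exposed to each compound for 48 hours at five concentrations; endpoints were interpolated linearly between bracketing concentrations, or set to the highest concentration if not reached. GI50: concentration for 50% inhibition of growth.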 Activity calls are given as the source filed them. Rule as the data show it: active = GI50 up to about 1.1 µM and inactive = higher.
Legend:
Assay in all cases: inhibition of tumour cell growth, NCI panel, 48 h
[1] = system: SK-MEL-2
[2] = system: K562
[3] = system: SW-620
[4] = system: Hs-578T
[5] = system: LOX IMVI
[6] = system: CCRF-CEM
[7] = system: EKVX
[8] = system: NCI-H460
[9] = system: SF-268
[10] = system: UACC-257
[11] = system: UO-31
[12] = system: OVCAR-5
[13] = system: MOLT-4
[14] = system: RXF 393
[15] = system: HL-60
[16] = system: 786-0
[17] = system: U-251
[18] = system: HCT-116
[19] = system: OVCAR-4

Measured: GI50

COC(=O)C(Cc1ccccc1)NC(=O)CNC(=O)CSc1nnc(COc2ccc(Cl)cc2)n1-c1ccccc1 (stereo not drawn)
inactive: [1] 17 µM | [2] 25.3 µM | [3] 20.4 µM | [4] 26.5 µM | [5] 3.69 µM | [6] 2.86 µM | [7] 20.4 µM | [8] 16.3 µM | [9] 17.1 µM | [10] 15.2 µM | [11] 1.69 µM | [12] 18.7 µM | [13] 3.55 µM | [14] 16.7 µM | [15] 4.8 µM | [16] 16.7 µM | [17] 18.2 µM | [18] 17.8 µM | [19] 6.73 µM

COC(=O)[C@](C)(Cc1ccccc1)NC(=O)[C@@H](C)N1[C@@H](c2ccccc2)COC1(C)C
inactive: [1] > 100 µM | [2] 48.1 µM | [3] 51.8 µM | [4] 24.5 µM | [5] 77.6 µM | [6] 89.7 µM | [7] 57.9 µM | [8] 31 µM | [9] 85.7 µM | [10] 53.7 µM | [11] 30.6 µM | [12] > 100 µM | [13] 34.4 µM | [14] 75.3 µM | [15] 63.5 µM | [16] 72.4 µM | [17] 57.7 µM | [18] 38.5 µM | [19] 39.6 µM

CC(C)(C)OC(=O)N1C[C@H](CC(=O)OCc2ccccc2)C[C@H]1C(=O)OCC(Cl)(Cl)Cl
inactive: [1] 6.7 µM | [2] 2 µM | [3] 11.4 µM | [4] 8.69 µM | [5] 4.97 µM | [6] 1.35 µM | [7] 2.78 µM | [8] 11.2 µM | [9] 8.28 µM | [10] 5.89 µM | [11] 3.94 µM | [12] 20.2 µM | [13] 1.19 µM | [14] 6.15 µM | [15] 2.68 µM | [16] 5.96 µM | [17] 2.56 µM | [18] 3.88 µM | [19] 3.95 µM

Cc1ccc(C(=O)/C=C2\Nc3cccnc3NC2=O)cc1
inactive: [1] > 100 µM | [2] > 100 µM | [4] 37.8 µM | [5] > 100 µM | [6] > 100 µM | [7] > 100 µM | [8] > 100 µM | [9] 55.8 µM | [10] > 100 µM | [11] > 100 µM | [12] > 100 µM | [13] > 100 µM | [14] 21.7 µM | [15] > 100 µM | [16] 40.2 µM | [17] 39.5 µM | [18] > 100 µM | [19] > 100 µM

COc1ccc(Nc2c(C#N)c3n(c4ccccc24)c2ccccc2[n+]3C)cc1OC
inactive: [1] 3.86 µM | [2] 2.33 µM | [3] 2.44 µM | [4] 2.86 µM | [5] 1.9 µM | [6] > 100 µM | [7] 2.93 µM | [8] 1.93 µM | [9] 1.76 µM | [10] 3.78 µM | [11] 1.3 µM | [12] 2.25 µM | [13] 1.68 µM | [14] 2.82 µM | [15] 3.84 µM | [16] 2.12 µM | [17] 2.7 µM | [18] 1.61 µM | [19] 4.68 µM

O=C(Oc1cc(=O)c(OC(=O)c2ccccc2)co1)c1ccccc1
inactive: [1] > 100 µM | [3] > 100 µM | [4] 93.8 µM | [5] 36.9 µM | [8] > 100 µM | [9] 90.4 µM | [10] > 100 µM | [11] > 100 µM | [12] > 100 µM | [13] 33.3 µM | [14] 72.9 µM | [15] 34.8 µM | [16] 49.4 µM | [17] 64.9 µM | [18] 65 µM | [19] 95.7 µM

CN1C(=O)N(c2ccccc2)C2(CCN(CC3COc4ccccc4O3)CC2)C1=O (stereo not drawn)
inactive: [1] > 100 µM | [2] 99.3 µM | [3] 4.5 µM | [4] > 100 µM | [5] > 100 µM | [6] > 100 µM | [7] > 100 µM | [8] 96.2 µM | [9] > 100 µM | [10] 82.2 µM | [11] > 100 µM | [12] > 100 µM | [13] 65.9 µM | [14] > 100 µM | [15] 39.2 µM | [16] 85.3 µM | [17] > 100 µM | [18] 96.8 µM | [19] > 100 µM

O=C(O)Cc1ccc(Oc2nc3ccccc3nc2-c2ccccc2)cc1
inactive: [1] 70 µM | [2] 97.9 µM | [3] 63.1 µM | [4] 41.7 µM | [5] 60.3 µM | [6] 61.4 µM | [7] 27.7 µM | [8] 57.8 µM | [9] 44.5 µM | [10] > 100 µM | [11] 36.6 µM | [12] > 100 µM | [13] 86.9 µM | [14] 29.2 µM | [15] 67.8 µM | [16] > 100 µM | [17] 56.2 µM | [18] 85.7 µM | [19] > 100 µM

Cc1ccc(F)c2[nH]c(-c3ccccc3)cc(=O)c12
inactive: [1] 6.93 µM | [2] 2.23 µM | [3] 4.67 µM | [4] 14.9 µM | [5] 4.68 µM | [6] 4.48 µM | [7] > 25.2 µM | [8] 5.32 µM | [9] 14.5 µM | [10] 58.5 µM | [11] 9.23 µM | [12] 9.1 µM | [13] 3.94 µM | [14] 3.58 µM | [15] 3.39 µM | [16] 2.83 µM | [17] 6.04 µM | [18] 4.73 µM | [19] > 70.5 µM

O=[N+]([O-])c1ccc(N2N=C(c3ccc4ccccc4c3O)CC2c2ccc(Cl)cc2Cl)c([N+](=O)[O-])c1 (stereo not drawn)
inactive: [1] 30.3 µM | [2] 15.4 µM | [3] 37.5 µM | [4] 27.9 µM | [5] 41.5 µM | [6] 12.9 µM | [7] 37.3 µM | [8] 51.1 µM | [9] 53.1 µM | [10] 48.9 µM | [11] 18.7 µM | [12] 37.2 µM | [13] 14.9 µM | [14] 25.4 µM | [15] 7.59 µM | [16] 28.2 µM | [17] 28 µM | [18] 23.6 µM | [19] 41.7 µM

CCOC(=O)N1CCC2(CC1)CC(=O)N(Nc1ccccc1)C2=O
inactive: [1] > 100 µM | [2] 16.9 µM | [3] > 100 µM | [4] 41.1 µM | [5] 98.4 µM | [6] > 100 µM | [7] > 100 µM | [8] 94.4 µM | [9] > 100 µM | [10] > 100 µM | [11] 39.9 µM | [12] 91.6 µM | [13] > 100 µM | [14] > 100 µM | [15] 28.9 µM | [16] > 100 µM | [17] > 100 µM | [18] > 100 µM | [19] > 100 µM

CC1(C)CC2(C)ON=C(c3ccccc3)N2c2ccccc2N1 (stereo not drawn)
inactive: [1] 20.9 µM | [2] 19.8 µM | [3] 36.5 µM | [4] 18.8 µM | [5] 17.3 µM | [6] 32.7 µM | [7] 24 µM | [8] 20.9 µM | [9] 22.1 µM | [10] 24.4 µM | [11] 18.2 µM | [12] 46.9 µM | [13] 21.6 µM | [14] 20.8 µM | [15] 19.7 µM | [16] 23.3 µM | [17] 19.8 µM | [18] 14.8 µM | [19] 39.8 µM

CNC(=O)c1ccccc1[S+]1c2cccc3cccc(c23)C(=O)N1C (stereo not drawn)
inactive: [1] > 100 µM | [2] > 100 µM | [3] > 100 µM | [4] > 100 µM | [5] > 100 µM | [6] > 100 µM | [7] > 100 µM | [9] > 100 µM | [10] > 100 µM | [11] > 100 µM | [12] > 100 µM | [13] > 100 µM | [14] > 100 µM | [15] > 100 µM | [16] > 100 µM | [17] > 100 µM | [18] > 100 µM | [19] > 100 µM

CC1=NCC[N+]1(CCc1ccccc1)Cc1ccccc1 (stereo not drawn)
inactive: [1] 27.7 µM | [2] 2.94 µM | [3] > 100 µM | [4] 16 µM | [5] 44.9 µM | [6] 34.5 µM | [7] > 100 µM | [8] 34.8 µM | [9] 27.6 µM | [10] 19.3 µM | [11] > 100 µM | [12] 47.4 µM | [14] > 100 µM | [15] 16.6 µM | [16] > 100 µM | [17] 29.3 µM | [18] 49 µM | [19] 37.2 µM

NC(Cc1ccc(S(=O)(=O)O)cc1)C(=O)NC(Cc1ccc(S(=O)(=O)O)cc1)C(=O)NC(Cc1ccc(S(=O)(=O)O)cc1)C(=O)NC(Cc1ccc(S(=O)(=O)O)cc1)C(=O)O (stereo not drawn)
inactive: [1] > 100 µM | [3] > 100 µM | [4] > 100 µM | [5] > 100 µM | [6] > 100 µM | [7] > 100 µM | [8] > 100 µM | [9] > 100 µM | [10] > 100 µM | [11] > 100 µM | [12] > 100 µM | [13] > 100 µM | [14] > 100 µM | [15] > 10 µM | [16] > 100 µM | [17] > 100 µM | [18] > 100 µM | [19] > 100 µM
